From PMC6571673, “Cytostatic and Cytotoxic Natural Products against Cancer Cell Models” (Molecules, 2019)

Tested on: MDA-MB-231
Assay: Co-localization of probe with organelle trackers, live cell imaging
Format: cell-based, human
Settings: live cells, 2 µM
From the text: It is important to determine the intracellular accumulation of compound 9 as this may aid in identifying its intracellular interactions. To facilitate these experiments, a series of orthogonal fluorescent organelle markers were used for co-localization studies. The organelle marker set included indicators for the lysosome (Lysotracker Red), the mitochondria (MitoTracker Deep Red), and the endoplasmic reticulum (ER tracker Blue/White). Where applicable, nuclei were stained with Hoechst (Blue). All these markers were compatible with BODIPY-FL (green) to allow for flexible combinations. […] First, to evaluate the accumulation of compound 9a after 30 min treatment at 1 µM, washout experiments were conducted as shown in Figure 7A in the presence of Hoechst nuclear stain. Distinct green specks were observed near the nucleus of the cell.
Co-localization studies were conducted in 8-well chambered coverslips (ibidi GmbH µ-slide # 80826) for MDA-MB-231. Coverslips were first coated with 0.1% Gelatin for 30 min for better cell adherence. Cells were then plated in phenol red free medium at a density of 4 × 10^4 cells per well and incubated at 37 °C overnight. […]

## COC1=CC23CCCN2CCc2cc4c(cc2C3C1OC(=O)CCC1=[N+]2C(=Cc3c(C)cc(C)n3[B-]2(F)F)C=C1)OCO4 (stereo not shown) [9a]
  co-localization with endoplasmic reticulum (ER-Tracker Blue/White): Co-localization of probe 9a with ER-Tracker Blue/White
